Results reported in patent publication US10617772B2, “Hsp9O-targeted inflammation and infection imaging and therapy” (Memorial Sloan Kettering Cancer Center, priority 2014, dated 2020).

Experiments:
[1] = tested on: inflammatory pulmonary consolidation; assay: I-124 PUH71 PET-CT, tracer mixed with a therapeutic dose of non-radioactive PUH71 (FIGS. 3-4); assay type: in vivo, human
Experimental: (§1) Positron emission tomography (PET) combined with X-ray computed tomography (CT) was performed using a state of the art integrated PET-CT scanner (Discovery DSTE™ General Electric). CT scans for attenuation correction and anatomic coregistration were performed prior to tracer-injection, using the following acquisition parameters: 140 kVp; 85 mA; pitch of 1.75:1; reconstructed slice thickness of 3.75 mm; 0.8 s per rotation. The CT protocol was designed for anatomic localization of tracer-signal and for attenuation correction, while minimizing radiation exposure. Each patient received ˜185 megabecquerel (MBq) [^124I]-PU-H71 by peripheral vein over two minutes. PET emission scans were acquired in two-dimensional mode starting at the mid-thighs moving toward the head, for 7.5 minutes per PET bed position. PET data were reconstructed using a standard ordered subset expected maximization iterative algorithm. Emission data were corrected for scatter, attenuation and decay. Clinical FDG PET-CT studies were performed according to standard methods using state of the art PET-CT scanners. [^124I]-PU-H71 scans were performed at 3-4 hrs, 20-24 hrs, 48-72 hours and, optionally, ˜168 hrs after tracer administration on the microdose [^124I]-PU-H71 PET-CT study.
PU-PET images were taken 1.5, 4, 24 and 48-72 hrs after co-administration on the tracer mixed with a therapeutic dose of non-radioactive PUH71 in a total volume of […], co-infused intravenously over one hour. Patient were treated with PU-H71 at escalating dose levels determined by a modified continuous reassessment model. Each patient is treated with his or her assigned dose on day 1, 4, 8 and 11 of each 21 day cycle. Pre- and post-treatment biopsies were collected for correlative studies including LCMSMS quantification of PU-H71, with the latter obtained within 24 hours of their cycle 1, day 1 dose of PU-H71.

[2] = tested on: inflammatory pulmonary infiltrate; assay: I-124 PUH71 PET-CT, microdose study in patients (FIGS. 1-2); assay type: in vivo, human; conditions: person with ovarian cancer; PET-CT 24 hours after intravenous injection of 9.3 mCi
Experimental: as §1

[3] = person with breast cancer, 6.5 mCi mixed with 35 mg non-radioactive PUH71, PET

clearance of tracer from blood stream (void of activity within the cardiac atrium) [1, 3] | tracer retention in left ventricle myocardium [1, 3] | accumulation of tracer in inflammatory pulmonary infiltrate (apex of left lung) [2] | uptake relative to surrounding healthy tissues ([1]; diseased tissue, patients, PET) | blood clearance ([1]; patients, PET) | retention in the diseased tissue ([1]; patients, PET) | SMILES | accumulation and retention of tracer in inflammatory pulmonary consolidation (right lung) ([1]; person with breast cancer, 6.5 mCi mixed with 35 mg non-radioactive PUH71, immediately, 4 hours and 24 hours post-injection) | outcome of pulmonary consolidation on CT scan ([1]; two weeks after imaging, PUH71 35 mg twice a week for two weeks per three week cycle, together with antibiotic treatment and pleural fluid drainage)
cleared from blood stream | distinct tracer retention | distinct accumulation |  |  |  | CC(C)NCCCn1c(Sc2cc3c(cc2[124I])OCO3)nc2c(N)ncnc21 [I-124 PUH71] | distinct accumulation and sustained retention | 
 |  |  | high uptake | rapid blood clearance | sustained retention | CC(C)NCCCn1c(Sc2cc3c(cc2I)OCO3)nc2c(N)ncnc21 [PUH71] |  | pulmonary consolidation had resolved
